Series [1] deals with HBV. The experiment in a line: HBV infection assay on HepaRG cells (HBsAg and HBeAg ELISA). Type of series: cell-based, Hepatitis B virus. The conditions noted are these: HBsAg and HBeAg at 5 dpi. The procedure: FIG. 11 HepaRG cells were infected with HBV in the presence of indicated PBADs. The level of secreted HBsAg and HBeAg was detected by ELISA at 5 dpi.
The antiviral potency of PBADs is also repeatable on other HBV infection system (HepaRG) with similar inhibition profile. […] HBV infection was conducted in the presence of NQL028, NQL018, NQL029, NQL019 and NQL021, all of which were bis-ester based PBADs with different linkage length.
(An ELISA detects its analyte on a solid surface through an enzyme-linked reagent.)

The test system of series [2] is HBV. The experiment in a line: HBV infection assay on HepG2-NTCP cells (secreted HBeAg by ELISA). The class given is cell-based, Hepatitis B virus. The note with it: HepG2-NTCP cells, secreted HBeAg. How it is done:
(§1) HBV and HDV infection assay. HepG2NTCP Cells were cultured in PMM for 12-24 hrs before infection, and then inoculated with 200 multiplicities of genome equivalents (mge) of HBV, or 500 mge of HDV in the presence of 5% PEG8000 in PMM at 37° C. for about 24 hrs. Chemicals to be tested were added to the cells as indicated in the specific assays. The inoculum was replenished by PMM post infection. The infections were detected at day 5 post infection (dpi).
ELISA assay for the detection of HBeAg and HBsAg. ELISA kits for HBeAg and HBsAg detection were from Wantai Pharm Inc. (Beijing, China). Supernatant from infected HepG2NTCP cells was collected on 2-5 days post infection. The secreted HBeAg and HBsAg in the culture medium was measured with a commercial kit from Wantai Pharm Inc (Beijing, China) by following the manufactory's instructions.

Another series relates to HDV. The experiment in a line: HDV infection assay on HepG2-NTCP cells (intracellular delta antigen staining). The class given is cell-based, Hepatitis D virus. How it is done:
as §1
Immunostaining assay. For HBV infection, infected cells were washed twice with PBS and fixed in 3.7% paraformaldehyde (PFA) at room temperature for 10 mins. Subsequently, cells were permeabilized with 0.5% Trition X-100/PBS for 10 mins at room temperature, blocked with 3% BSA at 37° C. for 1 hour, and followed by incubating with 5 μg/ml mouse mAb1C10 which recognizes HBcAg, and followed by staining with FITC-conjugated secondary antibody. Nucleus was stained with DAPI in blue. The stained cells were imaged with the fluorescence microscope (Nikon). For HDV infection, on 5 dpi, HDV infected cells were fixed with 100% methanol at room temperature for 10 mins, intracellular delta antigens were then stained with 5 μg/ml of FITC conjugated 4G5 and nucleus were stained with DAPI in blue. Images were collected by an Eclipse Ti Fluorescence Microscope (Nikon) and a representative picture is shown.

The subject of series [3] is HBV. The experiment in a line: In vitro stability: incubation with HBV inocula before infection, HBeAg ELISA. The conditions noted are these: incubated with HBV inocula for different times before infection, HBeAg at 5 dpi. The class given is cell-based, Hepatitis B virus. The procedure:
FIG. 10 The influence of the linkage groups on the in vitro stability of PBADs. TUDCA, NQL018, NQL044, and NQL055 were incubated with HBV inocula of different times before viral infection, and present in the inocula during infection period. The level of secreted HBeAg was detected by ELISA at 5 dpi.
The in vitro stability of PBADs could PBADs could be enhanced by optimization of the linkage bond. We conducted stability analysis of several PBADs with similar structure but of different linkage. […] This indicates the in vitro and in vivo stability is to a large extent determined by the feature of the linkage groups.

For the next series, the target named is T1, NTCP (Homo sapiens, UniProt Q14973).
T1 construct: expressed in transfected cells
T1 sequence (Q14973 1-349): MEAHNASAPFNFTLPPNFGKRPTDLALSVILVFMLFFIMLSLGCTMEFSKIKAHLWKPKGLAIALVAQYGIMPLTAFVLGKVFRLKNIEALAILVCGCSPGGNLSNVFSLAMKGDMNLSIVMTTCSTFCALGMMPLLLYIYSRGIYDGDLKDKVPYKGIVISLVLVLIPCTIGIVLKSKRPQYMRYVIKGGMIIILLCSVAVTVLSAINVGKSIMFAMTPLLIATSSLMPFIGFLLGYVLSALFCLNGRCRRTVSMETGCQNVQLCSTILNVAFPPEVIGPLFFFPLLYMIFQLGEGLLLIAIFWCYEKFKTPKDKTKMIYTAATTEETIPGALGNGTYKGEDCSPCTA
The experiment in a line: [3H] taurocholate uptake assay on HepG2-NTCP cells. Type of series: cell-based. The conditions noted are these: co-incubation assay, [3H] taurocholate, 10 min. How it is done:
[3H] substrate uptake assay. [3H]taurocholate uptake assay was conducted following a protocol as previously described(60). In general, HepG2-NTCP cells were cultured in PMM for 12-24 hrs, then were treated with or without indicated chemicals before uptake assay. For substrate uptake assay, cells were generally incubated with 0.5 μl (0.5 μCi) [3H]-taurocholate dissolved in Na+ Ringer's solutions for 10 mins at 37° C. with or without the presence of chemicals. Subsequently, cells were washed once by PBS and lysed by 100 μl of 1% TritonX-100 in H2O for 5 mins at room temperature. The lysate was transferred into liquid scintillation tube and mixed with 900 μl liquid scintillation cocktail (Ultima GOLD™ XR) (Perkin Elmer, USA). Liquid scintillation counting was performed on a Perkin Elmer 1450 LSC Liquid Scintillation Counter and Luminescence Counter.

“Also recorded” adds a separate entry of the source.

In the case of `C[C@H](CCC(=O)NCCS(=O)(=O)O)[C@H]1CC[C@H]2[C@@H]3[C@@H](O)CC4C[C@H](OC(=O)CCC(=O)O[C@@H]5CC[C@@]6(C)C(C5)C[C@H](O)[C@H]5[C@@H]7CC[C@H]([C@H](C)CCC(=O)NCCS(=O)(=O)O)[C@@]7(C)CC[C@@H]56)CC[C@]4(C)[C@H]3CC[C@]12C` (stereo in doubt) [NQL-028], the “inhibition of HBV infection on HepaRG cells (in words)” value with HBV [1] is “inhibited HBV infection”.
With `C[C@H](CCC(=O)NCCS(=O)(=O)O)[C@H]1CC[C@H]2[C@@H]3[C@@H](O)CC4C[C@H](O)CC[C@]4(C)[C@H]3CC[C@]12C` (stereo partly shown) [TUDCA, Tauroursodeoxycholic acid, reference compound], the “inhibition of HBV infection (in words)” value in the series with HBV [2] is listed as “most potent one among all bile acid derivatives tested”.
In the case of `C[C@H](CCC(=O)NCCS(=O)(=O)O)[C@H]1CC[C@H]2[C@@H]3[C@@H](O)CC4C[C@H](NC(=O)CCCC(=O)N[C@@H]5CC[C@@]6(C)C(C5)C[C@H](O)[C@H]5[C@@H]7CC[C@H]([C@H](C)CCC(=O)NCCS(=O)(=O)O)[C@@]7(C)CC[C@@H]56)CC[C@]4(C)[C@H]3CC[C@]12C` (stereo partly shown) [NQL-044], the “inhibition of HBV infection (in words)” value in the series on HBV [2] was “high antiviral activity”. Further, the “inhibition of HDV infection (in words)” value in the series on HDV is reported as “high antiviral activity”. Also, in the series with HBV [3], the “in vitro stability (antiviral potency after long incubation with the inoculum)” value is “much more stable as no significant potency decrease was observed”.
In the case of `C[C@H](CCC(=O)NCCS(=O)(=O)O)[C@H]1CC[C@H]2[C@@H]3[C@@H](O)CC4C[C@H](OCc5cn([C@@H]6CC[C@@]7(C)C(C6)C[C@H](O)[C@H]6[C@@H]8CC[C@H]([C@H](C)CCC(=O)NCCS(=O)(=O)O)[C@@]8(C)CC[C@@H]67)nn5)CC[C@]4(C)[C@H]3CC[C@]12C` (stereo partly shown) [NQL-055], in the series with HBV [3], the “in vitro stability (antiviral potency after long incubation with the inoculum)” value is recorded as “much more stable as no significant potency decrease was observed”.
`C[C@H](CCC(=O)NCCS(=O)(=O)O)[C@H]1CC[C@H]2[C@@H]3[C@@H](O)CC4C[C@@H](O)CC[C@]4(C)[C@H]3CC[C@]12C` (stereo partly shown) [Iso-TUDCA, Iso-tauroursodeoxycholic acid]: the “inhibition of HBV infection (in words)” value in the series with HBV [2] is “did not show significantly improved inhibitory efficiency over the natural monomeric TUDCA”.
Turning to `CC(=O)O[C@@H]1CC[C@@]2(C)C(C1)C[C@H](O)[C@H]1[C@@H]3CC[C@H]([C@H](C)CCC(=O)NCCS(=O)(=O)O)[C@@]3(C)CC[C@@H]12` (stereo partly shown) [3-OAc-TUDCA], in the series with HBV [2], the “inhibition of HBV infection (in words)” value is “did not show significantly improved inhibitory efficiency over the natural monomeric TUDCA”.
On to `C[C@H](CCC(=O)NCCS(=O)(=O)O)[C@H]1CC[C@H]2[C@@H]3[C@@H](O)CC4C[C@H](OC(=O)CCCCC(=O)O[C@@H]5CC[C@@]6(C)C(C5)C[C@H](O)[C@H]5[C@@H]7CC[C@H]([C@H](C)CCC(=O)NCCS(=O)(=O)O)[C@@]7(C)CC[C@@H]56)CC[C@]4(C)[C@H]3CC[C@]12C` (stereo in doubt) [NQL-029], for which the “inhibition of HBV infection on HepaRG cells (in words)” value in the series on HBV [1] was “inhibited HBV infection”.
On the same count and under the same terms, under `C[C@H](CCC(=O)NCCS(=O)(=O)O)[C@H]1CC[C@H]2[C@@H]3[C@@H](O)CC4CC(NC(=O)CCCC(=O)NC5CC[C@@]6(C)C(C5)C[C@H](O)[C@H]5[C@@H]7CC[C@H]([C@H](C)CCC(=O)NCCS(=O)(=O)O)[C@@]7(C)CC[C@@H]56)CC[C@]4(C)[C@H]3CC[C@]12C` (stereo partly shown) [NQL-021] stands “inhibited HBV infection”.
For `C[C@H](CCC(=O)NCCS(=O)(=O)O)[C@H]1CC[C@H]2[C@@H]3[C@@H](O)CC4CC5(CC[C@]4(C)[C@H]3CC[C@]12C)N=N5` (stereo partly shown) [3-Diz-TUDCA], the “inhibition of HBV infection (in words)” value with HBV [2] is “did not show significantly improved inhibitory efficiency over the natural monomeric TUDCA”.
For `C[C@H](CCC(=O)NCCS(=O)(=O)O)[C@H]1CC[C@@H]2C3[C@@H](OC(=O)CC[C@@H](C)[C@H]4CC[C@@H]5C6[C@@H](CC[C@@]54C)[C@@]4(C)CC[C@H](O)CC4C[C@@H]6O)CC4C[C@@H](O)CC[C@]4(C)[C@@H]3CC[C@@]21C` (stereo partly shown) [NQL-015], the “inhibition of HBV infection (in words)” value with HBV [2] is reported as “high antiviral activity; also recorded: greatly improved potency”. The “inhibition of HDV infection (in words)” value in the series with HDV was “high antiviral activity; also recorded: greatly improved potency”. The “inhibition of NTCP substrate uptake (in words)” value on NTCP is given as “significantly higher efficiency than that of TUDCA”.
Take `C[C@H](CCC(=O)NCCCC1(C)N=N1)[C@H]1CC[C@H]2[C@@H]3[C@@H](O)CC4C[C@H](O)CC[C@]4(C)[C@H]3CC[C@]12C` (stereo partly shown) [Diz-UDCA, Diz-Ursodeoxycholic acid]: the “inhibition of HBV infection (in words)” value in the series with HBV [2] is reported as “did not show significantly improved inhibitory efficiency over the natural monomeric TUDCA”.
Turning to `C[C@H](CCC(=O)NCCS(=O)(=O)O)[C@H]1CC[C@H]2[C@H]3[C@H](CC[C@]12C)[C@@]1(C)CC[C@@H](O)CC1CC31N=N1` (stereo partly shown) [7-Diz-TUDCA], the “inhibition of HBV infection (in words)” value in the series with HBV [2] is on record as “did not show significantly improved inhibitory efficiency over the natural monomeric TUDCA”.
Take `C[C@H](CCC(=O)NCCS(=O)(=O)O)[C@H]1CC[C@H]2[C@@H]3[C@@H](O)CC4C[C@H](OC(=O)CCCCCC(=O)O[C@@H]5CC[C@@]6(C)C(C5)C[C@H](O)[C@H]5[C@@H]7CC[C@H]([C@H](C)CCC(=O)NCCS(=O)(=O)O)[C@@]7(C)CC[C@@H]56)CC[C@]4(C)[C@H]3CC[C@]12C` (stereo in doubt) [NQL-019]: in the series with HBV [1], the “inhibition of HBV infection on HepaRG cells (in words)” value is given as “inhibited HBV infection”.
Consider `CCN(CCCN(C)C)C(=O)OC(=O)CC[C@@H](C)[C@H]1CC[C@H]2[C@@H]3[C@@H](O)CC4C[C@H](O)CC[C@]4(C)[C@H]3CC[C@]12C` (stereo partly shown) [CA-UDCA, Carbamic-UDCA], for which, in the series on HBV [2], the “inhibition of HBV infection (in words)” value was “did not show significantly improved inhibitory efficiency over the natural monomeric TUDCA”.
Consider `C[C@H](CCC(=O)OCCCCC[C@@H]1SC[C@@H]2NC(=O)N[C@@H]21)[C@H]1CC[C@H]2C3[C@@H](O)CC4C[C@H](O)CC[C@]4(C)[C@H]3CC[C@]12C` (stereo partly shown) [Biotin-UDCA], for which the “inhibition of HBV infection (in words)” value with HBV [2] is “did not show significantly improved inhibitory efficiency over the natural monomeric TUDCA”.
